Where two headings read alike, the source gives them in different places. Marks after values point to notes of the source that are not given here.
Columns and labels:
Assay type in all cases: in vivo, mouse
normal mice (C57BL/6J) = assay: Oral glucose tolerance test of normal mice; parameters: AUC0-120 min: unit not given beside the values
Procedure: (§1) 2. Experimental method: normal mice, obese mice and diabetic mice were used for studying glucose tolerance tests Experimental process of OGTT (Oral Glucose Tolerance Test): fasting for 6 hours before the test begins, 60 min after drug administration, glucose was administrated by gavage (drug concentration 0.6 mg/ml, administration volume 5 ml/kg) (2 g/kg glucose was administrated to diabetic mice; 2 g/kg glucose was administrated to obese mice; and 5 g/kg glucose was administrated to normal mice), blood glucose values at 0 min, 15 min, 30 min, 45 min, 60 min and 120 min are respectively determined after glucose administration, […]

[1] = system: obese mice (B6.Cg-Lepob/JNju); assay: Glucose tolerance test of obese mice; parameters: AUC0-120 min: unit not given beside the values
Procedure: as §1

[2] = Pharmacokinetics experiments in CD-1 mice; settings: for concentration at 0.5 h: 0.500 h; for MRT last: read-out: MRT0-last; for concentration at 0.25 h: 0.250 h; for Plasma drug concentration (ng/ml): LLOQ 3 ng/ml
Procedure: Six healthy CD-1 mice of 7-10 weeks old were randomly separated into two groups. 2 mg/kg and 5 mg/kg TSL-0319 were administrated respectively by intravenous injection and by gavage (2 mg/ml for intravenous injection, made into transparent solution with solution of DMSO/PEG400/H2O=20/60/20; 5 mg/ml for gavage; made into transparent solution with solution of PEG400 (Tween80/H2O=40/10/50); fasting for 12 hours but free drinking before administration; blood was taken from the great saphenous vein or submaxillary veins by time points (time points for taking blood of intravenous injection: 0 h, 0.0833 h, 0.250 h, 0.500 h, 1.00 h, 2.00 h, 4.00 h, 8.00 h, 12.00 h and 24.00 h; time points for taking blood of gavage: 0 h, 0.250 h, 0.50 h, 1.00 h, 2.00 h, 4.00 h, 8.00 h, 12.00 h and 24.0 h) before and after administration, lower limit of quantitation, LLOQ was set at 3 ng/ml.

[3] = CD-1, mouse, plasma, oral, gavage 5 mg/kg, read-out: Plasma drug concentration
[4] = CD-1, mouse, plasma, po, gavage 5 mg/kg
[5] = CD-1, mouse, plasma, intravenous injection 2 mg/kg
[6] = CD-1, mouse, plasma, intravenous injection 2 mg/kg, read-out: Plasma drug concentration

Cmax ([2]; CD-1, mouse, blood, oral, dosage 5 mg/kg, read-out: Cmax in mice): 0.2 to 0.5 µM
concentration at 0.5 h [2, 3]: 0.123 ± 0.0302 µg/mL
concentration at 1 h [2, 3]: 0.183 ± 0.0191 µg/mL
concentration at 2 h [2, 3]: 0.211 ± 0.083 µg/mL
concentration at 4 h [2, 3]: 0.145 ± 0.0409 µg/mL
concentration at 8 h ([2]; CD-1, mouse, plasma, oral, gavage 5 mg/kg, 8.00 h, read-out: Plasma drug concentration): 0.00803 ± 0.00371 µg/mL
AUC(0-inf) [2, 4]: 0.858 ± 0.185 µg·h/mL
AUC(0-t) [2, 4]: 0.844 ± 0.181 µg·h/mL
Tmax [2, 4]: 1.33 ± 0.577 h
half-life [2, 4]: 1.37 ± 0.317 h
MRT inf ([2]; CD-1, mouse, plasma, po, gavage 5 mg/kg, read-out: MRT0-inf): 3 ± 0.111 h
MRT last [2, 4]: 2.87 ± 0.0589 h
AUC(0-inf) [2, 5]: 0.567 ± 0.0561 µg·h/mL
AUC(0-t) [2, 5]: 0.555 ± 0.0547 µg·h/mL
clearance [2, 5]: 3.55 ± 0.338 L/h/kg
concentration at 0.25 h [2, 6]: 0.529 ± 0.0934 µg/mL
concentration at 0.5 h [2, 6]: 0.344 ± 0.0327 µg/mL
concentration at 1 h [2, 6]: 0.161 ± 0.0212 µg/mL
concentration at 2 h [2, 6]: 0.0475 ± 0.0136 µg/mL
concentration at 4 h [2, 6]: 0.0119 ± 0.00224 µg/mL
MRT ([2]; CD-1, mouse, plasma, intravenous injection 2 mg/kg, read-out: MRT0-int): 0.953 ± 0.123 h
MRT last [2, 5]: 0.836 ± 0.0919 h
Vd ([2]; CD-1, mouse, plasma, intravenous injection 2 mg/kg, read-out: Vdss): 3.41 ± 0.745 L/kg
Plasma drug concentration (ng/ml) ([2]; gavage 5 mg/kg, 12.00 h): BQL
Plasma drug concentration (ng/ml) ([2]; gavage 5 mg/kg, 24.00 h): BQL
Plasma drug concentration (ng/ml) ([2]; intravenous injection 2 mg/kg, 8.00 h): BQL
Plasma drug concentration (ng/ml) ([2]; intravenous injection 2 mg/kg, 12.00 h): BQL
Plasma drug concentration (ng/ml) ([2]; intravenous injection 2 mg/kg, 24.00 h): BQL
bioavailability ([2]; mouse, plasma, oral, gavage 5 mg/kg versus intravenous 2 mg/kg, CD-1 mice): 60.5%
concentration at 0.25 h ([2]; mouse, plasma, oral, gavage 5 mg/kg, CD-1 mice, read-out: Plasma drug concentration): 0.048 ± 0.0279 µg/mL
Cmax ([2]; mouse, plasma, po, gavage 5 mg/kg, CD-1 mice, read-out: Cmax): 0.223 ± 0.0681 µg/mL
half-life ([2]; mouse, plasma, intravenous injection 2 mg/kg, CD-1 mice): 1.09 ± 0.623 h
concentration at 0.5 min ([2]; mouse, plasma, intravenous injection 2 mg/kg, CD-1 mice, 0.5 min, read-out: Plasma drug concentration): 0.759 ± 0.133 µg/mL
SMILES: CC#CCn1c(N2CCC[C@@H](N)C2)nc2c1c(=O)n(Cc1nccnc1C#N)c(=O)n2C [Compound I-3, 1-[(3-cyano-pyrazine-2-yl)methyl]-3-methyl-7-(2-butyne-1-yl)-8-[(R)-3-amino-piperidine-1-yl]-xanthine]
Blood glucose concentration 0 min (normal mice (C57BL/6J); normal mice C57BL/6J, drug at -60 min (0.6 mg/ml, 5 ml/kg), 5 g/kg glucose at 0 min): 8.88* mmol/L
hypoglycemic effect (normal mice (C57BL/6J); normal mice, in words): good hypoglycemic effect
Blood glucose concentration 15 min (normal mice (C57BL/6J); normal mice, 15 min after glucose): 14.6*** mmol/L
Blood glucose concentration 30 min (normal mice (C57BL/6J); normal mice, 30 min after glucose): 11.0*** mmol/L
Blood glucose concentration 45 min (normal mice (C57BL/6J); normal mice, 45 min after glucose): 9.23*** mmol/L
Blood glucose concentration 60 min (normal mice (C57BL/6J); normal mice, 60 min after glucose): 9.82*** mmol/L
Blood glucose concentration 120 min (normal mice (C57BL/6J); normal mice, 120 min after glucose): 7.58 mmol/L
AUC0-120 min (normal mice (C57BL/6J); normal mice, blood glucose AUC): 1185***
Blood glucose concentration 0 min ([1]; obese mice B6.Cg-Lepob/JNju, drug at -60 min (0.6 mg/ml, 5 ml/kg), 2 g/kg glucose at 0 min): 10.90 mmol/L
hypoglycemic effect ([1]; obese mice, in words): good hypoglycemic effect
Blood glucose concentration 15 min ([1]; obese mice, 15 min after glucose): 32.88 mmol/L
Blood glucose concentration 30 min ([1]; obese mice, 30 min after glucose): 25.93 mmol/L
Blood glucose concentration 45 min ([1]; obese mice, 45 min after glucose): 17.03** mmol/L
Blood glucose concentration 60 min ([1]; obese mice, 60 min after glucose): 13.88** mmol/L
Blood glucose concentration 120 min ([1]; obese mice, 120 min after glucose): 9.53* mmol/L
AUC0-120 min ([1]; obese mice, blood glucose AUC): 2025*

From patent US10358449B2, “Xanthine derivative” (priority 2015, dated 2019)
